Our source for the mass density values is the NIST ThermoML archive (doi:10.1021/acs.jced.5b00154).

For this data set the following is noted: 101.33 kPa, Liquid, Vibrating tube method.

± gives the expanded uncertainty stated by the source.

As a reminder, the mass density is mass per unit of volume. As for `[2H]O[2H]` [water-d2], the mass density amounted to 1105.53 ± 0.08 kg/m3 (278.15 K); 1105.77 ± 0.08 kg/m3 (288.15 K); 1104.36 ± 0.079 kg/m3 (298.15 K); 1101.63 ± 0.079 kg/m3 (308.15 K); 1097.84 ± 0.078 kg/m3 (318.15 K).
